# Measurements from ChEMBL document CHEMBL5058642, “Data for DCP probe TP-051” (2022).
# Columns and labels:
# [1] = biological target: T1, D(4) dopamine receptor (Homo sapiens) (UniProt P21917); assay: Inhibition of Dopamine D4.2 at 10 µM in the Eurofins-Panlabs radioligand binding assay (Eurofins_assay_219900); design: ligand concentration 0.5 nM; details: Compound concentration 10.0 uM
# T1 sequence (whole entry): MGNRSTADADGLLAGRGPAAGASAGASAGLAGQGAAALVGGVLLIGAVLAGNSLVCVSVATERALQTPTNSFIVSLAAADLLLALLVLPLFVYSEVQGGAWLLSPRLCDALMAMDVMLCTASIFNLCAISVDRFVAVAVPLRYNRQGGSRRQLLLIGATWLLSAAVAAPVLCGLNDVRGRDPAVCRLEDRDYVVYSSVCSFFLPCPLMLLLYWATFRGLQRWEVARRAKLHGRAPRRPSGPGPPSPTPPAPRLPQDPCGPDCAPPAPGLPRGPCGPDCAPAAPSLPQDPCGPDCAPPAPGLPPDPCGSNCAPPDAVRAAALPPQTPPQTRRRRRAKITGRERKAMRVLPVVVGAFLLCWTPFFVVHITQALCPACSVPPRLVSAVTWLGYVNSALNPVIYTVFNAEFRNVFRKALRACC
# [2] = biological target: Glutamate receptor ionotropic, kainate (Rattus norvegicus) (UniProt P22756+Q01812+P42260+P42264+Q63273); assay: Inhibition of Glutamate, Kainate at 10 µM in the Eurofins-Panlabs radioligand binding assay (Eurofins_assay_232700); details: Compound concentration 10.0 uM
# [3] = biological target: Platelet-activating factor receptor (Homo sapiens) (UniProt P25105); assay: Inhibition of Platelet Activating Factor (PAF) at 10 µM in the Eurofins-Panlabs radioligand binding assay (Eurofins_assay_265010); details: Compound concentration 10.0 uM
# [4] = biological target: ATP-sensitive inward rectifier potassium channel 11 (Cricetulus griseus) (UniProt A0A3L7HHE1); assay: Inhibition of Potassium Channel [KATP] at 10 µM in the Eurofins-Panlabs radioligand binding assay (Eurofins_assay_265600); details: Cricetinae; Compound concentration 10.0 uM
# [5] = biological target: voltage-gated sodium channel, site 2 (Rattus norvegicus, UniProt F1LQQ7+O08562+O88420+O88457+P04774+P04775+P08104+P15389+P15390+Q62968); assay: Inhibition of Sodium Channel, Site 2 at 10 µM in the Eurofins-Panlabs radioligand binding assay (Eurofins_assay_279510); type: protein assay; design: ligand concentration 5 nM, non-specific ligand with concentration 100 µM Veratridine, incubation time 60 min, incubation temperature 37 °C; details: male, Wistar, rat whole brain (except cerebellum) membranes, probe [3H] Batrachotoxinin, 5 nM, compound concentration 10 uM
# [6] = biological target: Substance-P receptor (Homo sapiens) (UniProt P25103); assay: Tachykinin NK1 Eurofins-Panlabs radioligand binding assay; details: Compound concentration 10.0 uM
# [7] = biological target: Progesterone receptor (Homo sapiens) (UniProt P06401); assay: Inhibition of Progesterone PR-B at 10 µM in the Eurofins-Panlabs radioligand binding assay (Eurofins_assay_268020); design: ligand concentration 1.4 nM; details: Compound concentration 10.0 uM
# [8] = biological target: Vasopressin V1b receptor (Homo sapiens) (UniProt P47901); assay: Inhibition of Vasopressin V1B at 10 µM in the Eurofins-Panlabs radioligand binding assay (Eurofins_assay_287560); design: ligand concentration 1 nM; details: Compound concentration 10.0 uM
# [9] = biological target: Type-2 angiotensin II receptor (Homo sapiens) (UniProt P50052); assay: Angiotensin AT2 Eurofins-Panlabs radioligand binding assay; type: protein assay; details: Compound concentration 10.0 uM
# [10] = species on record: Rattus norvegicus; assay: Potassium Channel [SKCA] Eurofins-Panlabs radioligand binding assay; design: ligand concentration 0.005 nM; details: Compound concentration 10.0 uM
# [11] = biological target: T2, Muscarinic acetylcholine receptor M1 (Homo sapiens) (UniProt P11229); assay: Muscarinic M1 Eurofins-Panlabs radioligand binding assay; details: Compound concentration 10.0 uM
# T2 sequence (whole entry): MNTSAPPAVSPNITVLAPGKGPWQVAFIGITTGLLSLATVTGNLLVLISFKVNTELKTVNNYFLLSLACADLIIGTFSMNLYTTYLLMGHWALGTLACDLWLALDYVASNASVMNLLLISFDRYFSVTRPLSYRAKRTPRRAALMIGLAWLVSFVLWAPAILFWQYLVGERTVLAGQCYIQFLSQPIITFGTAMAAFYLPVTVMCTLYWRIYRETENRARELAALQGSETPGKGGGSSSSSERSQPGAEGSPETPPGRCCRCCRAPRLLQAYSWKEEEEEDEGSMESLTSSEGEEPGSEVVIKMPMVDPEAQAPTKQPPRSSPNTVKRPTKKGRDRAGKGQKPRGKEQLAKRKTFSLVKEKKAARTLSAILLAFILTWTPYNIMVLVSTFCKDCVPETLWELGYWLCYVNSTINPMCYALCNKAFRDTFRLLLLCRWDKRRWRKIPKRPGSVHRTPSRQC
# [12] = biological target: Muscarinic acetylcholine receptor M3 (Homo sapiens) (UniProt P20309); assay: Muscarinic M3 Eurofins-Panlabs radioligand binding assay; details: Compound concentration 10.0 uM
# [13] = biological target: 5-hydroxytryptamine receptor 1D (Homo sapiens) (UniProt P28221); details: Compound concentration 10.0 uM
# [14] = biological target: T3, 5-hydroxytryptamine receptor 3A (Homo sapiens) (UniProt P46098); details: Compound concentration 10.0 uM
# T3 sequence (whole entry): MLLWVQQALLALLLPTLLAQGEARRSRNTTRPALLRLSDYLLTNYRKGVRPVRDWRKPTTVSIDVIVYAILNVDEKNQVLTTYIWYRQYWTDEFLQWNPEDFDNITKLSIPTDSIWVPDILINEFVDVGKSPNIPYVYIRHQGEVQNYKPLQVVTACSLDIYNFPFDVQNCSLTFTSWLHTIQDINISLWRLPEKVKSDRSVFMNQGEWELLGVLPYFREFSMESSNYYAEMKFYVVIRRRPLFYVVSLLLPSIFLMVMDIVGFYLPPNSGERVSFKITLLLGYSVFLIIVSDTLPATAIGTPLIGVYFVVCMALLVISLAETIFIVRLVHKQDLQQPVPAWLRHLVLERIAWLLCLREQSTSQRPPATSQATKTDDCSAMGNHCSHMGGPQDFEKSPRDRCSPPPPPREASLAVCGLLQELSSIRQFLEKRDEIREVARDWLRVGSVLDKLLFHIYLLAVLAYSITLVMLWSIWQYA
# [15] = biological target: D(3) dopamine receptor (Homo sapiens, UniProt P35462); details: Compound concentration 10.0 uM
# [16] = biological target: Histamine H3 receptor (Homo sapiens) (UniProt Q9Y5N1); details: Compound concentration 10.0 uM
# [17] = biological target: Alpha-2C adrenergic receptor (Homo sapiens) (UniProt P18825); details: Compound concentration 10.0 uM
# [18] = biological target: Beta-1 adrenergic receptor (Homo sapiens) (UniProt P08588); details: Compound concentration 10.0 uM
# [19] = biological target: Sigma intracellular receptor 2 (Homo sapiens) (UniProt Q5BJF2); details: Compound concentration 10.0 uM
# [20] = biological target: Beta-2 adrenergic receptor (Homo sapiens, UniProt P07550); details: Compound concentration 10.0 uM
# [21] = biological target: Glutamate NMDA receptor (Rattus norvegicus) (UniProt P35439+Q00959+Q00960+Q00961+Q62645+Q8VHN2+Q9R1M7); details: Compound concentration 10.0 uM
# [22] = biological target: Histamine H1 receptor (Homo sapiens) (UniProt P35367); details: Compound concentration 10.0 uM
# [23] = species on record: Rattus norvegicus; details: Compound concentration 10.0 uM
# Sequence of D(3) dopamine receptor (P35462 whole entry): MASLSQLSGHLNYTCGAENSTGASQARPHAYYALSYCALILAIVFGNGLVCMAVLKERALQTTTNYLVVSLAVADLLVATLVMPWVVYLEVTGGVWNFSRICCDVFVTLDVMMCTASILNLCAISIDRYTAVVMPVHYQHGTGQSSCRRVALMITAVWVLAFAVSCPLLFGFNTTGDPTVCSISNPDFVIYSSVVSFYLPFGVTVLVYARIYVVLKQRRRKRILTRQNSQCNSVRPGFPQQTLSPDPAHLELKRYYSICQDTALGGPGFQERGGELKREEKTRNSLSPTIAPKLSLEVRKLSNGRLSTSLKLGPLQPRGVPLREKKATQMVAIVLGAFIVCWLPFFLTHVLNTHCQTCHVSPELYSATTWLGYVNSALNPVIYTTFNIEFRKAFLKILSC
# Sequence of Histamine H1 receptor (Homo sapiens) (P35367 whole entry): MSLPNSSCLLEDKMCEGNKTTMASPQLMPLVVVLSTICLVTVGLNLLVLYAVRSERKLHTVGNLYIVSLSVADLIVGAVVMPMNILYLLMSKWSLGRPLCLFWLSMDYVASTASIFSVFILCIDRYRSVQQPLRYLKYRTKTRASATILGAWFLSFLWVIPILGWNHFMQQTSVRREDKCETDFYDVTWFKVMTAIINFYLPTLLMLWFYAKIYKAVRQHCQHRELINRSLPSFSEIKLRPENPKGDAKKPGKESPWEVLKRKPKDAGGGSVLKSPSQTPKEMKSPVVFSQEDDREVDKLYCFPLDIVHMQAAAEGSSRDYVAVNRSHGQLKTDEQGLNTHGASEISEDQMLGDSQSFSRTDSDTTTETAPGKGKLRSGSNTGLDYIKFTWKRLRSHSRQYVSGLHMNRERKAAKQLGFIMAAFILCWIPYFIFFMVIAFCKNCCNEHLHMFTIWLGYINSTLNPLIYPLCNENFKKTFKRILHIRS
# Sequence of Vasopressin V1b receptor (Homo sapiens) (P47901 whole entry): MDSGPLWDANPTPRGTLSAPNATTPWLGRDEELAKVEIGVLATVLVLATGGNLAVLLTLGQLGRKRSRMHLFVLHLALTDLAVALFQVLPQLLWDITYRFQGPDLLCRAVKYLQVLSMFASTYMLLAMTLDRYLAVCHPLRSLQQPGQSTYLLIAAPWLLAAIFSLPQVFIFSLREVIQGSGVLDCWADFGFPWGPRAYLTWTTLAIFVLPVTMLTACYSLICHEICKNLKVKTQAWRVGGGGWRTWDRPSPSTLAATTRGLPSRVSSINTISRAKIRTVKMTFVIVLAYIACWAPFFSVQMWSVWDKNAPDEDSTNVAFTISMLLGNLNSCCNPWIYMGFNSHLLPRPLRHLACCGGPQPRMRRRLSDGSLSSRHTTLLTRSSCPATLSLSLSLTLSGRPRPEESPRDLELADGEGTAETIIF
# Sequence of Type-2 angiotensin II receptor (Homo sapiens) (P50052 whole entry): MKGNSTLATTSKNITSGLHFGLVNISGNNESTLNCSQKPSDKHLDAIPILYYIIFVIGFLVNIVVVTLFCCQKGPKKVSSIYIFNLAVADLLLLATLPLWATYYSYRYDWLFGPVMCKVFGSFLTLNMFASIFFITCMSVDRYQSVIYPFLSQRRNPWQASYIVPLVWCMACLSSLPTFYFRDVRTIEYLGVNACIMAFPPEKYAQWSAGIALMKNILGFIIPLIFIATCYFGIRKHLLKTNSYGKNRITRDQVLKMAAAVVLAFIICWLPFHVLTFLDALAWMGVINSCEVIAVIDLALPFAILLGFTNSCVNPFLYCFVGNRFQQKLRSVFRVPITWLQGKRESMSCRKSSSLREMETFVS
# Sequence of Histamine H3 receptor (Homo sapiens) (Q9Y5N1 whole entry): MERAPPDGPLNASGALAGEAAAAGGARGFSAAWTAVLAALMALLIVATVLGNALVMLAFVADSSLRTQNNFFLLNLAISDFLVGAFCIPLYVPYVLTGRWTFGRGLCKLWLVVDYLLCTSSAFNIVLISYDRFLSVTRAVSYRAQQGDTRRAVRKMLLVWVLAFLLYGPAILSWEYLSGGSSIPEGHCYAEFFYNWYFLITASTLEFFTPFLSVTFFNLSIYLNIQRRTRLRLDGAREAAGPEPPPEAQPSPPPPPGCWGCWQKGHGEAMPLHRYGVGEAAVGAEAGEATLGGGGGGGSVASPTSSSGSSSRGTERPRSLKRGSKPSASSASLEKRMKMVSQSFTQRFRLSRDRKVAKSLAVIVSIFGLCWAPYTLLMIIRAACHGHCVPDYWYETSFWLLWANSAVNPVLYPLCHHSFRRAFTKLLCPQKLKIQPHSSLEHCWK
# Sequence of Progesterone receptor (Homo sapiens) (P06401 whole entry): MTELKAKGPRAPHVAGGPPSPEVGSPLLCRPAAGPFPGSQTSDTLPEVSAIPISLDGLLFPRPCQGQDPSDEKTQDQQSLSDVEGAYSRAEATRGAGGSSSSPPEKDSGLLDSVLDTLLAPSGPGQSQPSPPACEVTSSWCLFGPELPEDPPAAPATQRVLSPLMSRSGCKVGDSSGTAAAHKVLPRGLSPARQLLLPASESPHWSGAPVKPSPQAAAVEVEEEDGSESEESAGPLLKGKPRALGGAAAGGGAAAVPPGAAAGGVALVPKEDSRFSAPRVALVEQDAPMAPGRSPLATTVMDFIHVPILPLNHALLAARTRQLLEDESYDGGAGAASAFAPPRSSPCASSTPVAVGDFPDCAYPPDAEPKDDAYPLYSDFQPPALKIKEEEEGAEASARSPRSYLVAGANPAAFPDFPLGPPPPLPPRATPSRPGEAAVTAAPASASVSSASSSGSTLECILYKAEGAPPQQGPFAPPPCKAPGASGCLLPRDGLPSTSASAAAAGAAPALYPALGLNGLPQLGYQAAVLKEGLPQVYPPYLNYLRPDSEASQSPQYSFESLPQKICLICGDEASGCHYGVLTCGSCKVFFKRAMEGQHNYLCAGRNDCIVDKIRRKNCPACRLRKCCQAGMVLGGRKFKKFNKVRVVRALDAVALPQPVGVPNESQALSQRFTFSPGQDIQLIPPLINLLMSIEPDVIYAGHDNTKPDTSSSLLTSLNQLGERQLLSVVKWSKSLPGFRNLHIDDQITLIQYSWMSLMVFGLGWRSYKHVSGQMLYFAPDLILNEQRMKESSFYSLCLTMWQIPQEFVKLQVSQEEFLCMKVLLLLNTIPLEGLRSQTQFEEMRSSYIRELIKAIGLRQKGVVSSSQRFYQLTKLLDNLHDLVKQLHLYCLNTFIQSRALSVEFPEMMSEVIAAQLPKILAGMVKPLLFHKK
# Sequence of ATP-sensitive inward rectifier potassium channel 11 (Cricetulus griseus) (A0A3L7HHE1 as listed by the source): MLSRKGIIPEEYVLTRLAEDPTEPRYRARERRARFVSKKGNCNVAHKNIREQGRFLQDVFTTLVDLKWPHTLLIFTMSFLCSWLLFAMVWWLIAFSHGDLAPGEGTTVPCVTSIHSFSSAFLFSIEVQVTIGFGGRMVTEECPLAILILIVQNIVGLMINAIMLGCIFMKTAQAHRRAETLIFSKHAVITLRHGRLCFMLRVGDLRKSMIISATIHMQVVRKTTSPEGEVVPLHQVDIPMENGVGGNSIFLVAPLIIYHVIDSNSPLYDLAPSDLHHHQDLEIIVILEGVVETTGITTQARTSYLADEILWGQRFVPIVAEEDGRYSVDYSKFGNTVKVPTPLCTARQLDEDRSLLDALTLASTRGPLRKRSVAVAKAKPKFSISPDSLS
# Sequence of Substance-P receptor (Homo sapiens) (P25103 whole entry): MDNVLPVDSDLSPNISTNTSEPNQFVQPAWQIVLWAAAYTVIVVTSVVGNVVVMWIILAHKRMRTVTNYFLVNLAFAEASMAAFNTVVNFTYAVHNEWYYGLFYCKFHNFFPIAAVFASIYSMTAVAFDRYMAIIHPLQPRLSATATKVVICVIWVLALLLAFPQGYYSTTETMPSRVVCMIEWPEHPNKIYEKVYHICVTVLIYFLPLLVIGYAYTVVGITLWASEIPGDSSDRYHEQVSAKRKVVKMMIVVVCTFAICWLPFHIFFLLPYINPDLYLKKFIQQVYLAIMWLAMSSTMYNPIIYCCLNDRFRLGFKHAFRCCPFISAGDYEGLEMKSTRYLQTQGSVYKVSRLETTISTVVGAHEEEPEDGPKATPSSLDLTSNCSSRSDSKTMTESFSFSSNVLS
# Sequence of Sigma intracellular receptor 2 (Homo sapiens) (Q5BJF2 whole entry): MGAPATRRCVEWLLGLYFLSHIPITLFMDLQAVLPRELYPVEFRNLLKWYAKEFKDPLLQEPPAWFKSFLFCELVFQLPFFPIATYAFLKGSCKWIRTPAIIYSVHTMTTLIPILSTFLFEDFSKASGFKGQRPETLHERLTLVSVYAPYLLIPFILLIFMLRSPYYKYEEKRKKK
# Sequence of Beta-2 adrenergic receptor (P07550 whole entry, looked up): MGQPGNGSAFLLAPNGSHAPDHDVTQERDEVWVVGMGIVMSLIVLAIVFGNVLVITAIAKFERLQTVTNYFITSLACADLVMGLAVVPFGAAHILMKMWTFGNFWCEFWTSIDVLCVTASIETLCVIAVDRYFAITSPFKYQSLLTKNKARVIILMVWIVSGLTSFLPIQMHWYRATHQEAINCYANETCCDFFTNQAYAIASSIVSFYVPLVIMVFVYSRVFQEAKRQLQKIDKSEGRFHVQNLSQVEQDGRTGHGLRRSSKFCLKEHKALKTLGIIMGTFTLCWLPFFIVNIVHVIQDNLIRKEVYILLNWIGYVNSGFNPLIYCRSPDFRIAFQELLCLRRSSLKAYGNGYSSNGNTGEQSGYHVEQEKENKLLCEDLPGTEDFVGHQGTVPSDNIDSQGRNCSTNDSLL
# Sequence of Beta-1 adrenergic receptor (Homo sapiens) (P08588 whole entry, looked up): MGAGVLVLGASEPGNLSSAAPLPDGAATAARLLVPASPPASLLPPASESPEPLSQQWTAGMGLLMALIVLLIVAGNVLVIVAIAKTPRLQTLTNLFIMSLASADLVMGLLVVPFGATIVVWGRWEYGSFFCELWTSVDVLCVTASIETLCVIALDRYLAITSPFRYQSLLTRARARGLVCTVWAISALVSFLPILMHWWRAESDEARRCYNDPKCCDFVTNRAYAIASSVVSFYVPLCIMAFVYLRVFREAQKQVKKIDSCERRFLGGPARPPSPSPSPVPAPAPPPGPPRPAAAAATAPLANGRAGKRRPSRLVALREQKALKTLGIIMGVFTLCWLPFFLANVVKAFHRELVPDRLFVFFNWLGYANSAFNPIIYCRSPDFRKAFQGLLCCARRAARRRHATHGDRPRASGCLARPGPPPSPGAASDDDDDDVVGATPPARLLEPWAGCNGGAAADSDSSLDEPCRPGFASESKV
SMILES,inhibition [1],inhibition [2],inhibition [3],inhibition [4],"inhibition at 60 min, 10 µM [5]",inhibition [6],inhibition [7],inhibition [8],inhibition [9],inhibition [10],inhibition [11],inhibition [12],inhibition [13],inhibition [14],inhibition [15],inhibition [16],inhibition [17],inhibition [18],inhibition [19],inhibition [20],further results
Cc1cc(OC2CCS(=O)(=O)CC2)cc(C)c1-c1cccc(COc2ccc(C(=O)O)c(F)c2)c1,6%,8%,2%,-3%,-5% (not active),3%,6%,-4%,1%,1%,-7%,1%,29.5%,-5.96%,7.34%,6.7%,-4.04%,-0.49%,1.49%,-7%,inhibition [21]: 7%; inhibition [22]: 2%; inhibition [23]: 7%
Cc1cc(OC2CCS(=O)(=O)CC2)cc(C)c1-c1cccc(COc2ccc(CCC(=O)O)c(F)c2)c1,9%,-10%,4%,19%,6% (not active),17%,10%,-4%,-4%,-5%,-9%,4%,35.8%,6.06%,59.6%,21.1%,5.47%,14.4%,19.6%,3%,inhibition [21]: 8%; inhibition [22]: -7%; inhibition [23]: -4%
